Consider 2 molecules from ChEMBL document CHEMBL2346660, “Synthesis and biological evaluation of trans 6-methoxy-1,1-dimethyl-2-phenyl-3-aryl-2,3-dihydro-1H-inden-4-yloxyalkylamine derivatives against drug susceptible, non-replicating M. tuberculosis H37Rv and clinical multidrug resistant strains” (Bioorg Med Chem Lett, 2013).

Assay [1] concerns Mycobacterium tuberculosis. The assay is described as follows: Antimicrobial activity against rifampicin-resistant and INH-resistant Mycobacterium tuberculosis 2643 by agar dilution method and BACTEC radiometric method. In kind it is functional. In general terms: In agar dilution the substance is mixed into plates at graded concentrations.
Assay [2] relates to Mycobacterium tuberculosis. Nature of the assay: Antimicrobial activity against rifampicin-resistant and INH-resistant Mycobacterium tuberculosis 1678/05 by agar dilution method and BACTEC radiometric method. In kind it is functional.

Values after ≈ are worked out from the molar mass of the structure shown.

On to `COc1cc(OCCN(C(C)C)C(C)C)c2c(c1)C(C)(C)[C@H](c1ccccc1)[C@H]2c1ccccc1` (relative stereo), for which the minimal inhibitory concentration (MIC) in assay [1] and in assay [2] was 6.25 µg/mL (≈ 13.3 µM) throughout.
For `COc1cc(OCCN2CCCCCC2)c2c(c1)C(C)(C)[C@H](c1ccccc1)[C@H]2c1c(OC)ccc2ccccc12` (relative stereo), the minimal inhibitory concentration (MIC) in assay [1] and in assay [2] was 3.12 µg/mL (≈ 5.68 µM) in each case.

Usually MIC stands for the least concentration at which growth counts as inhibited. A higher MIC goes with a less susceptible organism.
